# Laboratory results taken from patent US20240279220A1, “INDOLE COMPOUNDS AND METHODS OF USE” (Genzyme Corporation, priority 2021, published 2024).
# Key:
# NBD1/3D = assay: Aggregation analysis using differential static light scattering (DSLS), NBD1 thermal stability; type: binding, Human; details: ΔTagg versus DMSO control; compound at 100 μM
# Procedure, shortened: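 Thermal stabilisation reported as ΔTagg, i.e. aggregation temperature relative to averaged DMSO wells. Tagg came from the inflection of differential static light scattering imaged 25–70 °C while NBD1 (0.2 mg/ml, Tris pH 7.6 buffer containing ATP, MgCl2, DTT, glycerol) was ramped 1 °C/min.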
# CFTR = target: T1, CFTR (Homo sapiens, UniProt P13569, DEL508-508); assay: TECC24 recording of CFTR-mediated transepithelial chloride transport in ΔF508 homozygous CF-HBE cells; type: cell-based; details: 10 μM test agent, 48 hours incubation, AUC of forskolin-stimulated IEQ divided by vehicle AUC, primary CF-HBE cells
# T1 construct: Primary human bronchial epithelial cells from a ΔF508 homozygous CF donor; host or cells: primary human bronchial epithelial cells (CF-HBE), ΔF508 homozygous donor
# Protocol: The effects of a test agent on CFTR-mediated transepithelial chloride transport was measured using TECC24 recording analysis. Test agents were solubilized in DMSO. Solubilized test agents were mixed with incubation medium containing DMEM/F12, Ultroser G (2%; Crescent Chemical, catalog #67042), Hyclone Fetal Clone II (2%; GE Healthcare, catalog #SH30066.02), bovine brain extract (0.25%; Lonza, catalog #CC-4098), insulin (2.5 μg/mL), IL-13 (10 ng/mL), hydrocortisone (20 nM), transferrin (2.5 μg/mL), triiodothyronine (500 nM), ethanolamine (250 nM), epinephrine (1.5 μM), phosphoethanolamine (250 nM), and retinoic acid (10 nM). Primary human bronchial epithelial cells from a ΔF508 homozygous CF donor (CF-HBE cells; from University of North Carolina Cystic Fibrosis Tissue Procurement Center), grown on Transwell HTS 24-well cell culture inserts (Costar, catalog #3378), were exposed to test agents or controls dissolved in incubation medium. The CF-HBE cells were cultured at 36.5° C. for 48 hours before TECC24 recordings were performed in the presence or absence of test agent, a positive control or vehicle (DMSO).
# Following incubation, the transwell cell culture inserts containing the test agent or control-treated CF-HBE cells were loaded onto a TECC24 apparatus (TECC v7 or MTECC v2; EP Design) to record the transepithelial voltage (VT) and resistance (TEER) using 4 AgCl electrodes per well configured in current-clamp mode. The apical and basolateral bath solutions both contained (in mM) 140 NaCl, 5 KCl, 2 CaCl2, 1 MgCl2, 10 Hepes, and 10 glucose (adjusted to pH 7.4 with NaOH). To inhibit basal Na+ absorption, the ENaC inhibitor benzamil (10 μM) was added to the bath. Then, the adenylate cyclase activator, forskolin (10 μM), was added to the bath to activate CFTR. The forskolin-stimulated Cl— transport was halted by addition of CFTR inhibitor-172 (20 μM) to the bath at the end of the experiment to confirm specificity. VT and TEER recordings were digitally acquired at routine intervals using TECC or MTECC software (EP Design). VT and TEER were transformed into equivalent transpeithelial Cl— current (IEQ), and the Area Under the Curve (AUC) of the IEQ timecourse between forskolin and CFTR inhibitor-172 addition is generated using Excel (Microsoft). Efficacy is expressed as the ratio of the test agent AUC divided by vehicle AUC. EC50s based on AUC are generated using the non-linear regression log(agonist) vs. response function in Prism software (Graphpad) with HillSlope fixed=1.
# If a test agent increased the AUC of the forskolin-stimulated IEQ relative to vehicle in CF-HBE cells, and this increase was inhibited by CFTR inhibitor-172, then the test agent was considered a CFTR corrector.
# T1 sequence (P13569 with tags, fused parts or gaps DEL508-508): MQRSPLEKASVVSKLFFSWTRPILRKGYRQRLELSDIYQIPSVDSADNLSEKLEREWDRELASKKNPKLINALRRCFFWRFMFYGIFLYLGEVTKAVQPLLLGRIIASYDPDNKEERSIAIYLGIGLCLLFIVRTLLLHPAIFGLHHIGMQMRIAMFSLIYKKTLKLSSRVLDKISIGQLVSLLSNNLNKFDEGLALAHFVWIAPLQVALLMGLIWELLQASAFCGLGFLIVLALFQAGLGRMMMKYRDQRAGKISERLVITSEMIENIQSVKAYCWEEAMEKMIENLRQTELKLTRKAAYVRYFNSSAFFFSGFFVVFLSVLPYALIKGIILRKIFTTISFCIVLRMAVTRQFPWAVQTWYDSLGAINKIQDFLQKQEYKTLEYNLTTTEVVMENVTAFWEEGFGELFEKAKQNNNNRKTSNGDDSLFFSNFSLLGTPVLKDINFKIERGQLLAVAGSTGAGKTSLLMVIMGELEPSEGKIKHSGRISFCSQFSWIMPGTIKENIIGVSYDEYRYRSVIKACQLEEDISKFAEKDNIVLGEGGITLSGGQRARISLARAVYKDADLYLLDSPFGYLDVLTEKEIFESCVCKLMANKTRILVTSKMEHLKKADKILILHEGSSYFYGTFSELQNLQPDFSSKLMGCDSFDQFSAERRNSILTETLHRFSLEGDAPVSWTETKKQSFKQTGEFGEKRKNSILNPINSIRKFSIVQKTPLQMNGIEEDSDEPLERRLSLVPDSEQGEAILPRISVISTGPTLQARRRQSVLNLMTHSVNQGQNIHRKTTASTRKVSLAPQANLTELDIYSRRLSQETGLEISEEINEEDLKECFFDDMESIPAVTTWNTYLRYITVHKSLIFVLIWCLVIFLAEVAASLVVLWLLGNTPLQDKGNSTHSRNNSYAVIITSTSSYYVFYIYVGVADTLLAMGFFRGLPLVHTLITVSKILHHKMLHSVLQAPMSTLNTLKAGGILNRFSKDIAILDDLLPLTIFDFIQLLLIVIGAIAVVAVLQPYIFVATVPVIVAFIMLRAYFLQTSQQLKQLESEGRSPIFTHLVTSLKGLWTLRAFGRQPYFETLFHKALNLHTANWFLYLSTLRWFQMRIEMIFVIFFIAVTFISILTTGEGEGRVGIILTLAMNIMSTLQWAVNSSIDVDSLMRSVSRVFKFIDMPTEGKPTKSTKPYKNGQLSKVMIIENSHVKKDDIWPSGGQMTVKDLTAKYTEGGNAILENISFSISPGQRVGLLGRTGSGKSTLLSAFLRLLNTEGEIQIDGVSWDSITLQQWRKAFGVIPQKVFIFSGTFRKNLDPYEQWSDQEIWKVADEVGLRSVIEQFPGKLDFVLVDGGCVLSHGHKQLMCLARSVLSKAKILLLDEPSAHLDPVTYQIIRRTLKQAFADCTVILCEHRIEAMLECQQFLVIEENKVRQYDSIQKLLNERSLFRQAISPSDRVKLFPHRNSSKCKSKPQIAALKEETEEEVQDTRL
SMILES,TECC24 @ 10 μM over DMSO (AUC fold over DMSO) (CFTR),DSLS NBD1/3D Human Stability delta-T (° C.) @ 100 (μM) (NBD1/3D)
CS(=O)(=O)c1c(Oc2cccc(-c3ccn(Cc4cccc(CCC(=O)O)c4)n3)c2)ccc2[nH]ccc12 [Example 40],A (“A” refers to AUC @10 uM >= 12),A (A: T ≥ 10° C.)
"CC(c1c[nH]c(-c2cc(Oc3c(F)cc4[nH]ccc4c3S(C)(=O)=O)ccc2F)n1)c1cccc(CC(=O)O)c1F (single isomer, unassigned) [Example 84, 2-(2-fluoro-3-(1-(2-(2-fluoro-5-((6-fluoro-4-(methylsulfonyl)-1H-indol-5-yl)oxy)phenyl)-1H-imidazol-4-yl)ethyl)phenyl)acetic acid]",B (“B” refers to AUC @10 uM between 4-12),A (A: T ≥ 10° C.)
"CC(O)(c1cccc(CCC(=O)O)c1)c1c[nH]c(-c2cc(C(=O)c3ccc4[nH]ccc4c3)ccc2F)n1 (stereo not drawn) [Example 194, 3-(3-(1-(2-(2-fluoro-5-(1H-indole-5-carbonyl)phenyl)-1H-imidazol-4-yl)-1-hydroxyethyl)phenyl) propanoic acid]",C (“C” refers to AUC @ 10 uM <= 4),B (B: 5-10° C.)
"COC(=O)CCc1cccc(C(O)c2cnc(-c3cccc(Oc4c(F)cc5[nH]ccc5c4-c4nccs4)c3)[nH]2)c1 (stereo not drawn) [Example 86, Methyl 3-(3-((2-(3-((6-fluoro-4-(thiazol-2-yl)-1H-indol-5-yl)oxy)phenyl)-1H-imidazol-5-yl)(hydroxy)methyl)phenyl)propanoate]",C (“C” refers to AUC @ 10 uM <= 4),C (C: ≤5° C.)
"Cc1c(Oc2cc(-c3ncc(C(C)(O)c4cccc(CCC(=O)O)c4)[nH]3)c(F)cc2F)c(F)cc2[nH]ccc12 (stereo not drawn) [Example 206, 3-(3-(1-(2-(2,4-difluoro-5-((6-fluoro-4-methyl-1H-indol-5-yl)oxy)phenyl)-1H-imidazol-5-yl)-1-hydroxyethyl)phenyl) propanoic acid]",C (“C” refers to AUC @ 10 uM <= 4),B (B: 5-10° C.)
"Cc1c(Oc2ccc(F)c(-c3ncc(C(C)(C)c4cccc(CCC(=O)O)c4F)[nH]3)c2)ccc2[nH]ccc12 [Example 161, 3-(2-fluoro-3-(2-(2-(2-fluoro-5-((4-methyl-1H-indol-5-yl)oxy)phenyl)-1H-imidazol-5-yl)propan-2-yl)phenyl)propanoic acid]",,B (B: 5-10° C.)
"CC(C#N)(c1cccc(CCC(=O)O)c1)c1cnc(-c2cc(Oc3nc4cc[nH]c4cc3F)ccc2F)[nH]1 (stereo not drawn) [Example 61, 3-(3-(1-cyano-1-(2-(2-fluoro-5-((6-fluoro-1H-pyrrolo[3,2-b]pyridin-5-yl)oxy)phenyl)-1H-imidazol-5-yl)ethyl)phenyl)propanoic acid]",,B (B: 5-10° C.)
"Cc1c(Oc2ccc(F)c(-c3nc(C4(c5cccc(CCC(=O)O)c5)OCCO4)c[nH]3)c2)c(F)cc2[nH]ccc12 [Example 232, 3-(3-(2-(2-(2-fluoro-5-((6-fluoro-4-methyl-1H-indol-5-yl)oxy)phenyl)-1H-imidazol-4-yl)-1,3-dioxolan-2-yl)phenyl)propanoic acid]",,B (B: 5-10° C.)
"Cc1c(Oc2cccc(-c3ccn(Cc4cccc(CCCO)c4)n3)c2)ccc2[nH]ccc12 [Example 6, 3-(3-((3-(3-((4-Methyl-1H-indol-5-yl)oxy)phenyl)-1H-pyrazol-1-yl)methyl)phenyl)propan-1-ol]",,C (C: ≤5° C.)
"Cc1c(Oc2ccc(F)c(-c3nc(Cc4cccc(CCC(=O)O)c4)c[nH]3)c2)ccc2[nH]ccc12 [Example 109, 3-(3-((2-(2-fluoro-5-((4-methyl-1H-indol-5-yl)oxy)phenyl)-1H-imidazol-4-yl)methyl)phenyl)propanoic acid]",,B (B: 5-10° C.)
"O=C(O)CCCCc1cccc(Cc2nnc(-c3cccc(Oc4cc5cc[nH]c5cn4)c3)[nH]2)c1 [Example 257, 5-(3-((5-(3-((1H-pyrrolo[2,3-c]pyridin-5-yl)oxy)phenyl)-4H-1,2,4-triazol-3-yl)methyl)phenyl)pentanoic acid]",,C (C: ≤5° C.)

# Further lines, with some results ahead:
TECC24 @ 10 μM over DMSO (AUC fold over DMSO) (CFTR),SMILES,DSLS NBD1/3D Human Stability delta-T (° C.) @ 100 (μM) (NBD1/3D)
A (“A” refers to AUC @10 uM >= 12),"CC(c1cnc(-c2cc(Oc3c(F)cc4[nH]ccc4c3CC(F)(F)F)ccc2F)[nH]1)c1cccc(CCC(=O)O)c1F (single isomer, unassigned) [Example 128B, 3-(2-fluoro-3-(1-(2-(2-fluoro-5-((6-fluoro-4-(2,2,2-trifluoroethyl)-1H-indol-5-yl)oxy)phenyl)-1H-imidazol-5-yl)ethyl)phenyl)propanoic acid]",A (A: T ≥ 10° C.)
A (“A” refers to AUC @10 uM >= 12),"CC(c1cn(C)c(-c2cc(Oc3c(F)cc4[nH]ccc4c3F)ccc2F)n1)c1cccc(CCC(=O)O)c1F (single isomer, unassigned) [Example 278B, 3-(3-(1-(2-(5-((4,6-difluoro-1H-indol-5-yl)oxy)-2-fluorophenyl)-1-methyl-1H-imidazol-4-yl)ethyl)-2-fluorophenyl)propanoic acid]",B (B: 5-10° C.)
C (“C” refers to AUC @ 10 uM <= 4),"O=C(O)CCc1cccc(C2(c3cnc(-c4cc(Oc5c(F)cc6[nH]ccc6c5CC(F)(F)F)ccc4F)[nH]3)CCS(=O)(=O)CC2)c1 [Example 170, 3-(3-(4-(2-(2-fluoro-5-((6-fluoro-4-(2,2,2-trifluoroethyl)-1H-indol-5-yl)oxy)phenyl)-1H-imidazol-5-yl)-1,1-dioxidotetrahydro-2H-thiopyran-4-yl)phenyl)propanoic acid]",B (B: 5-10° C.)
A (“A” refers to AUC @10 uM >= 12),"CS(=O)(=O)Cc1c(Oc2ccc(F)c(-c3ncc(Cc4cccc(CCC(=O)O)c4F)[nH]3)c2)c(F)cc2[nH]ccc12 [Example 279, 3-(2-Fluoro-3-((2-(2-fluoro-5-((6-fluoro-4-((methylsulfonyl)methyl)-1H-indol-5-yl)oxy)phenyl)-1H-imidazol-5-yl)methyl)phenyl)propanoic acid]",A (A: T ≥ 10° C.)
A (“A” refers to AUC @10 uM >= 12),"C[C@H]1C[C@](c2cccc(CCC(=O)O)c2)(c2c[nH]c(-c3cc(Oc4c(F)cc5[nH]ccc5c4F)ccc3F)n2)CCO1 (racemic) [Example 155, 3-(3-((2S)-4-(2-(5-((4,6-difluoro-1H-indol-5-yl)oxy)-2-fluorophenyl)-1H-imidazol-5-yl)-2-methyltetrahydro-2H-pyran-4-yl)phenyl)propanoic acid]",A (A: T ≥ 10° C.)
A (“A” refers to AUC @10 uM >= 12),"CC(c1cnc(-c2cc(Oc3c(F)cc4[nH]ccc4c3F)ccc2F)[nH]1)c1cccc(CC(=O)O)c1F (single isomer, unassigned) [Example 131A, 2-(3-(1-(2-(5-((4,6-difluoro-1H-indol-5-yl)oxy)-2-fluorophenyl)-1H-imidazol-5-yl)ethyl)-2-fluorophenyl)acetic acid]",A (A: T ≥ 10° C.)
A (“A” refers to AUC @10 uM >= 12),"CC(c1cccc(CCC(=O)O)c1F)n1ccc(-c2cc(Oc3c(F)cc4[nH]ccc4c3S(C)(=O)=O)ccc2F)n1 (single isomer, unassigned) [Example 41B, 3-(2-fluoro-3-(1-(3-(2-fluoro-5-((6-fluoro-4-(methylsulfonyl)-1H-indol-5-yl)oxy)phenyl)-1H-pyrazol-1-yl)ethyl)phenyl)propanoic acid]",A (A: T ≥ 10° C.)
